Data as given in US9605027B2, “Polypeptides that bound to IL-23 receptor and inhibit binding of IL-23 and cell signaling thereof” (Medical Diagnostic Laboratories, LLC, priority 2011, dated 2017).
Entries after “also recorded” stand apart in the source; their conditions may differ. Each block holds one compound with its values, some of them ahead of it. Bridge positions count the residues as written; N and C are the ends. Ends that are not written are not given here.

Key:
[1] = target: T1, Recombinant human IL-23R-Fc (Homo sapiens, UniProt Q5VWK5); experiment: Competitive ELISA, IL-23 binding to IL-23R; conditions: for inhibition of IL-23 binding to its receptor by modified polypeptides, Competitive ELISA: procedure of Example 6, compared with parent polypeptide; for IC50: human IL-23 / IL-23R-Fc, read-out: IC50, Competitive ELISA
T1 construct: has the protein portion between the 24 amino acid residue to 353 amino acid residue; purchased R&D Systems 1400-IR-050
T1 sequence (Q5VWK5 24-353): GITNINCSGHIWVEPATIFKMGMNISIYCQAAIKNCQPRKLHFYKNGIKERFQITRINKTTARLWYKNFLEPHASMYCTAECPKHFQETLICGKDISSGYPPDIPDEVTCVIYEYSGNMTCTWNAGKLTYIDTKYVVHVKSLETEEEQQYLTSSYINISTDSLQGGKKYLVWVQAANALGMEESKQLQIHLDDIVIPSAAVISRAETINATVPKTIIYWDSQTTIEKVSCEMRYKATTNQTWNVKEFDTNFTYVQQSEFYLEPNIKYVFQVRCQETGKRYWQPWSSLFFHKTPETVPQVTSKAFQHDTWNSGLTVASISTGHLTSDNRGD
Experimental: The novel polypeptides were tested for their ability to inhibit IL-23 using a Competitive ELISA. In such an assay, IL-23R/Fc fusion protein was immobilized on a solid support. In this instance, the solid support was a 96-well plate, but the support may be any support that is typically used for an ELISA. The novel polypeptide and IL-23 were allowed to compete for binding to the immobilized IL-23R/Fc fusion protein. IL-23 that bound to IL-23R-Fc was detected using biotinylated anti-p40 antibody. The bound anti-p40 antibody was detected using streptavidin-horseradish peroxidase (HRP) and a tetramethylbenzidine (TMB) substrate was added to measure peroxidase activity. The color was measured at optical density (OD) 450nm. The color intensity was directly proportional to the amount of the bound IL-23 protein. […] (See, FIG. 16.)
(§1) FIG. 12 is a schematic depiction of the Competitive ELISA. Recombinant human IL-23R-Fc (2 μg/ml) was coated onto microtiter plates as a capture reagent. IL-23 and polypeptides were added to compete for binding to the immobilized IL-23R-Fc. IL-23 that bound to IL-23R-Fc was detected using biotinylated anti-p40 antibody (1:250). The bound anti-p40 antibody was detected using streptavidin-horseradish peroxidase (HRP) (1:500) and 100 μl/well of a tetramethylbenzidine (TMB) substrate was added to measure peroxidase activity. The color was measured at optical density (OD) 450nm. (See, FIG. 12). The color intensity was directly proportional to the amount of the bound IL-23 protein.
as §1, with “Recombinant” for “FIG. 12 is a schematic depiction of the Competitive ELISA. Recombinant”, “IL-23R-Fc. 50 μg human IL-23 (Cat. No. HZ-1048) (Humanzyme, Chicago, Ill.) in the presence or absence of 100 μM peptides was added to the well and incubated at 4° C. overnight.” for “IL-23R-Fc.”, “450nm.” for “450nm. (See, FIG. 12).”

[2] = Solubility of synthetic polypeptides (precipitate in assay); type: physicochemical; conditions: under Competitive ELISA conditions
[3] = target: T2, IL-23R pathway in STAT3-Luc reporter DB cells (Homo sapiens, UniProt Q5VWK5); experiment: Cell-based STAT3-Luc reporter DB cell assay (DB-Luc), inhibition of IL-23; conditions: cyclic vs linear peptides
Experimental: (§2) The Cignal STAT3 reporter (SA Biosciences, CCS-9028L), designed to measure the transcriptional activity of STAT3 homodimers, was transiently transfected into the DB cells. The stably transfected STAT3-Luc reporter clone was selected using 200 ng/ml of Hygromycin B.
The stably transfected STAT3-Luc reporter DB cells (0.5×10^6) were cultured in 100 μl of RPMI+10% FBS. IL-23 was added to the cells and incubated at 37° C. for 4 hours. Luciferase activity was measured using Dual-Glo luciferase assay system (Promega).
The isolated cyclic polypeptide no. 23.15-Fc fusion protein and cyclic polypeptide no. 23.19 were used in a cell-based assay to measure the IC50 values. The stably transfected STAT3-Luc reporter DB cells (0.5×10^6) were cultured in 100 μl of RPMI+10% FBS. The cells were pre-incubated with different concentration of isolated cyclic polypeptide no. 23.15-Fc fusion protein or polypeptide no. 23.19 for 30 minutes at 37° C. 50 ng/ml of IL-23 was added to the cells and incubated at 37° C. for an additional 4 hours. Luciferase activity was measured using Dual-Glo luciferase assay system (Promega). The IC50 values of isolated cyclic polypeptide no. 23.15-Fc fusion protein and cyclic polypeptide no. 23.19 are 2.5 μM and 2.5 μM respectively.
The isolated peptide no. 7 (SEQ ID NO: 156) and peptide no. 23.19 (SEQ ID NO: 130) (it is a cyclic version of the polypeptide no. 23.15) were used in a cell based assay to compare their inhibitory activity. The stably transfected STAT3-Luc reporter DB cells (0.5×10^6) were cultured in 100 μl of RPMI+10% FBS. The cells were pre-incubated with two different concentrations (10 μM and 2 μM) of isolated peptides for 30 minutes at 37° C. 50 ng/ml of IL-23 was added to the cells and incubated at 37° C. for an additional 4 hours. Luciferase activity was measured using Dual-Glo luciferase assay system (Promega). The inhibitory activity of isolated peptide no. 7 (SEQ ID NO: 156) is better than that of peptide no. 23.19 (SEQ ID NO: 130) (a cyclic version of polypeptide no. 23.15 (SEQ ID NO: 126) (See, FIG. 62).
DB cells express IL-23R on the cell surface. In addition, IL-23 stimulated the DB cells through the activation of STAT3 by phosphorylation (p-STAT3) (Example 7 (Figures. 14 and 15)). Based on these observations, DB cells were used to develop a cell-based assay to measure the inhibitory activity of peptide and peptide-Fc fusion protein in the IL-23R pathway. […]
as §2, with “CCS-9028L), which is” for “CCS-9028L),”, “B. The activity of IL-23R pathway can be measured by the transcriptional activity of STAT3 homodimers. […]” for “B.”

IL-23R deletion proteins [4] = target: T3, IL-23R deletion proteins (Homo sapiens, UniProt Q5VWK5); experiment: Immunoprecipitation with FLAG-tagged IL-23R deletion proteins; type: binding; conditions: 200 ng, anti-FLAG M2 immunoprecipitation, Western blot
T3 construct: made in house; host or cells: 293T cells (culture media)
T3 sequence (Q5VWK5 24-200): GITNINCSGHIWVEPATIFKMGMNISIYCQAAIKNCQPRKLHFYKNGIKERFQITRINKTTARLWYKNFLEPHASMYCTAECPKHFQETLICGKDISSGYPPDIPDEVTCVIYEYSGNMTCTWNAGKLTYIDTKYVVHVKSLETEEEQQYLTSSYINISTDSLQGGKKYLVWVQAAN
Experimental: (§3) In this study, we examined which regions of IL-23R proteins were required for the binding to IL-23 and polypeptide no. 23.15-fc fusion protein. To do so, we generated a series of IL-23R deletion proteins as illustrated in the FIG. 48.
(§4) Culture media from 293T cells transfected with different FLAG-tagged IL-23R deletion constructs were incubated with 200 ng of either IL-23 or polypeptide no. 23.15-fc fusion protein, then immunoprecipitated with anti-FLAG M2 affinity gel. The immunoprecipitate was subjected to Western blotting and polypeptide no. 23.15-Fc fusion protein or IL-23 was visualized with either anti-mouse IgG or anti-hIL-12/23p40 respectively. IL-23 or polypeptide no. […] 23.15-fc fusion protein (FIG. 48).

IL-23R deletion proteins [5] = experiment: as above; type: binding; conditions: 200 ng, anti-FLAG M2 immunoprecipitation, Western blot
Experimental: as §3, §4

[6] = target: T2, IL-23R pathway in STAT3-Luc reporter DB cells; experiment: STAT3-Luc reporter DB cells stimulated with IL-23 cytokines; type: cell-based
Experimental: In Example 29 (above), we detailed the development of stably transfected STAT3-Luc reporter clone. […] The stably transfected STAT3-Luc reporter DB cells (0.5×10^6 cells) were cultured in 100 μl of RPMI+10% FBS. Recombinant IL-23 (Humanzyme) or isolated IL-23 (WT or W5) was added to the cells and incubated at 37° C. for 4 hours. Luciferase activity was measured using Dual-Glo luciferase assay system (Promega).
The reporter luciferase activity increased by approximately 10 folds. Isolated WT IL-23 cytokine at different concentrations (50,000, 5,000, 500 and 50 ng/ml) was added to stimulate these stable cells. […] At the concentration of 50 ng/ml, the isolated WT IL-23 cytokine stimulates the IL-23R pathway as good as the recombinant IL-23 cytokine from Humazyme.

inhibition of IL-23 binding to its receptor by modified polypeptides, Competitive ELISA [1]: at least as effective
Compound: CSCC[C@H](NC(=O)[C@H](C)N)C(=O)N[C@H](C(=O)N[C@@H](Cc1c[nH]c2ccccc12)C(=O)N[C@@H](CCC(N)=O)C(=O)N[C@@H](CC(=O)O)C(=O)N[C@@H](Cc1ccc(O)cc1)C(=O)N[C@@H](Cc1c[nH]c2ccccc12)C(=O)N[C@@H](CC(C)C)C(=O)N[C@@H](Cc1ccc(O)cc1)C(=O)NCC(=O)N[C@@H](CCCNC(=N)N)C(=O)O)[C@@H](C)O [23.15]

IC50 [1]: < 1.56 µM
Compound: AMTWEDWWLYGR [compound 23]

solubility [2]: insoluble
Compound: SGAWWVQYWVQR [1.18]

Compound: 7HT AA (AMKTWVDYWLETQA; head-to-tail cyclic; listed as Homo sapiens)
inhibitory activity in cell-based DB-Luc assay [3]: did not eliminate the inhibitory activity
inhibition of IL-23 binding to its receptor by modified polypeptides, Competitive ELISA [1]: did not abrogate the polypeptides' ability

solubility [2]: formed a precipitate
Compound: SGASWVQFWVQR [1.17]

Compound: 7 CC (CMKTWVDYWLETQC; disulfide 1-14 (inferred); listed as Homo sapiens)
inhibition of IL-23 binding to its receptor by modified polypeptides, Competitive ELISA [1]: did not abrogate the polypeptides' ability

solubility [2]: insoluble
Compound: SGASWVQYWWWR [1.21]

IC50 [1]: ~3 µM
Compound: NWATYWQLRHQT [compound 9]
inhibitory activity in Competitive ELISA in relation to polypeptide no. 1 ([1]; 50 μM polypeptide, 30 ng/ml IL-23): significant and better inhibitory activity compared to peptide number 1; also recorded: inhibited IL-23 binding more than polypeptide no. 1

IC50 [1]: ~1.56 µM
Compound: DDWMQYWRQQVR [compound 27]

binding to IL-23R deletion protein 1-200 (IL-23R deletion proteins [4]): failed to bind
binding to IL-23R deletion proteins 1-348, 1-318 or 1-250 (IL-23R deletion proteins [5]): detected in the precipitate
increase of reporter luciferase activity ([6]; 50 ng/ml): approximately 10 folds
Compound: IL-23: heterodimeric cytokine of p19 and p40 subunits; recombinant from Humanzyme

solubility [2]: formed a precipitate
Compound: ASWVQYWVQ [1.4]

IC50 [1]: 6.25 to 12.5 µM
Compound: SGASWVQYWVQR [Polypeptide no. 1]

Compound: WT: IL-23 cytokine with wild type p19 subunit, expressed in 293T cells
stimulation of STAT3 reporter activity ([6]; 50,000, 5,000, 500 and 50 ng/ml): stimulates the STAT3 activity in a dose-dependent manner

solubility [2]: insoluble
Compound: SGWWWVQYWVQR [1.20]
